{"source": "patent US20220323429A1", "about": "“PIMAVANSERIN FOR TREATING NEURODEGENERATIVE DISEASES” (ACADIA Pharmaceuticals Inc., priority 2019, published 2022)", "key": {"[1]": {"assay": "Nasogastric Tube Compatibility Study, assay (HPLC)", "format": "physicochemical", "experimental": "(§1) Analytical HPLC Compatibility Study experiments (Example 2) were performed on Agilent 1200 Series, or equivalent; Waters XBridge C18 column, 5 μm 150×4.6 mm; mobile phase: Solvent A: 50 mM ammonium bicarbonate, pH 8.0; Solvent B: acetonitrile/methanol, 80:20 (v/v); Flow rate: 1 mL/min; Inj. Volume 60 μL; Autosampler Temp.: 5° C.; column temperature: 40° C.; the pooled limit of quantitation was 0.05% of 0.68 mg/mL; detection UV at 210 nm; sample concentration (as free base) assay: 0.034 mg/mL, impurity: 0.34 mg/mL; standard concentration (as free base) 0.034 mg/mL; PLOQ Std. 0.05% of 0.34 mg/mL; SST solution, 1% of 0.34 mg/mL (Impurities A, C, D, E, F, and G); diluent for standards 0.1N HCl; diluent for samples 0.1N HCl; run time, 40 min; gradient method: 0 min mobile phase A (90%) and mobile phase B (10%) to 30 min mobile phase A (0%), and mobile phase B (100%); then 30.1 min to 40 min mobile phase A (90%), mobile phase B (10%).\n(§2) Three samples of pimavanserin in water (n=3) were prepared as follows. The content of one capsule was dropped into a 100 mL bottle, and the empty capsule shell was discarded. Approximately 40 mL of water was added into the bottle, and the bottle was swirled until the contents were disintegrated. Syringes were secured approximately 1 meter above the benchtop, and the plungers were removed. The Hydromer coating on the weighted top of the NG tube was activated by submerging the weight assembly in water for 10 seconds. The NG tube was flushed with 20 mL of water, and remaining water in the syringe and the NG tube was expelled with the help of the syringe plunger. The weighted tip of the NG tube was placed into 100 mL volumetric flasks on the benchtop.\n(§3) For each sample, the aqueous dispersion was slowly poured into the syringe, allowing it to drain through the NG tube under gravity into the 100 mL collection volumetric flask. The original bottle containing the aqueous suspension of pimavanserin capsules was rinsed twice with 15 mL of water into the same syringe/NG tube system. The dispersion remaining in the syringe and NG tube was expelled with the help of the syringe plunger. Each flask was diluted to volume with 0.33N HCl (to make a final 0.1 N HCl concentration in the flask). The samples were sonicated for 15 minutes with intermediate shaking. A stir bar was added to the flask and the solution was stirred for 2 hours. An aliquot of each solution was centrifuged for 5 minutes at 10000 rom. The supernatant was transferred to a HPLC vial and injected for impurity analysis.\nSamples were prepared by transferring the stock solution using a 2.0 mL volumetric pipet into a 20 mL volumetric flask, diluted to volume with 0.1 N HCl, and mixed well by inversion. An aliquot of each solution was centrifuged for 5 minutes at 10000 rpm. The supernatant was transferred to a HPLC vial and injected for analysis.\n(§4) A “control” sample was prepared following the sample preparation procedure described above except it was not passed through a syringe/NG system. The content of one capsule was dropped into a 100 mL volumetric flask, and the empty capsule shell was discarded. Next 70 mL of water was added into the flask and swirled until the contents were completely disintegrated. The flask was diluted to volume with 0.33 N HCl (to make final 0.1N HCl concentration). The sample was sonicated for 15 minutes with intermediate shaking. A stir bar was dropped into the flask, and the solution was stirred for 2 hours. An aliquot was taken and centrifuged for 5 minutes at 10000 rpm. The supernatant was transferred to a HPLC vial and injected for impurity analysis."}, "[2]": {"assay": "Nasogastric Tube Compatibility Study, impurities (HPLC)", "format": "physicochemical", "experimental": "as §1, §2, §3, §4"}}}
{"smiles": "CC(C)COc1ccc(CNC(=O)N(Cc2ccc(F)cc2)C2CCN(C)CC2)cc1", "note": "[Pimavanserin, N-(4-Fluorophenylmethyl)-N-(1-methylpiperidin-4-yl)-N′-(4-(2-methylpropyloxy)phenylmethyl)carbamide]", "values": [{"measurement": "Assay (%)", "setting": "[1]; 34 mg capsule in water passed through syringe/NG tube, sample N = 1", "result": 92.2, "unit": "%"}, {"measurement": "Assay (%)", "setting": "[1]; 34 mg capsule in water passed through syringe/NG tube, sample N = 2", "result": 92.7, "unit": "%"}, {"measurement": "Assay (%)", "setting": "[1]; 34 mg capsule in water passed through syringe/NG tube, sample N = 3", "result": 96.3, "unit": "%"}, {"measurement": "Assay (%)", "setting": "[1]; NG Tube Control: capsule in water, not passed through syringe/NG system", "result": 91.5, "unit": "%"}, {"measurement": "difference of assay between control sample and mean of 3 NG tube samples", "setting": "[1]; aqueous dispersion of 34 mg capsule", "result": "≤ 2", "unit": "%"}, {"measurement": "effect of in vitro administration through a NG tube on stability", "setting": "[1]; capsule contents added to different vehicles", "result": "no effect"}, {"measurement": "Assay Mean % (n = 6)", "setting": "[1]; mean of NG tube samples", "result": 93.8, "unit": "%"}, {"measurement": "Imp-D", "setting": "[2]; NG Tube Control", "result": 0.13, "unit": "% w/w"}, {"measurement": "Impurity RRT-0.36", "setting": "[2]; NG Tube Control", "result": 0.05, "unit": "% w/w"}, {"measurement": "Impurity RRT-0.54", "setting": "[2]; NG Tube Control", "result": 0.07, "unit": "% w/w"}, {"measurement": "Impurity RRT-0.96", "setting": "[2]; NG Tube Control", "result": 0.06, "unit": "% w/w"}, {"measurement": "Impurity RRT-0.99", "setting": "[2]; NG Tube Control", "result": 0.07, "unit": "% w/w"}, {"measurement": "Total degradation products and impurities", "setting": "[2]; NG Tube Control", "result": 0.38, "unit": "% w/w"}, {"measurement": "Imp-D", "setting": "[2]; NG Tube Mean (n = 3)", "result": 0.13, "unit": "% w/w"}, {"measurement": "Impurity RRT-0.36", "setting": "[2]; NG Tube Mean (n = 3)", "result": 0.06, "unit": "% w/w"}, {"measurement": "Impurity RRT-0.54", "setting": "[2]; NG Tube Mean (n = 3)", "result": 0.07, "unit": "% w/w"}, {"measurement": "Impurity RRT-0.85", "setting": "[2]; NG Tube Mean (n = 3)", "result": 0.05, "unit": "% w/w"}, {"measurement": "Impurity RRT-0.96", "setting": "[2]; NG Tube Mean (n = 3)", "result": 0.06, "unit": "% w/w"}, {"measurement": "Impurity RRT-0.99", "setting": "[2]; NG Tube Mean (n = 3)", "result": 0.06, "unit": "% w/w"}, {"measurement": "Impurity RRT-1.11", "setting": "[2]; NG Tube Mean (n = 3)", "result": 0.05, "unit": "% w/w"}, {"measurement": "Total degradation products and impurities", "setting": "[2]; NG Tube Mean (n = 3)", "result": 0.48, "unit": "% w/w"}, {"measurement": "Imp-D", "setting": "[2]; NG Tube N = 1", "result": 0.13, "unit": "% w/w"}, {"measurement": "Impurity RRT-0.36", "setting": "[2]; NG Tube N = 1", "result": 0.05, "unit": "% w/w"}, {"measurement": "Impurity RRT-0.54", "setting": "[2]; NG Tube N = 1", "result": 0.07, "unit": "% w/w"}, {"measurement": "Impurity RRT-0.85", "setting": "[2]; NG Tube N = 1", "result": 0.05, "unit": "% w/w"}, {"measurement": "Impurity RRT-0.96", "setting": "[2]; NG Tube N = 1", "result": 0.05, "unit": "% w/w"}, {"measurement": "Impurity RRT-0.99", "setting": "[2]; NG Tube N = 1", "result": 0.07, "unit": "% w/w"}, {"measurement": "Total degradation products and impurities", "setting": "[2]; NG Tube N = 1", "result": 0.42, "unit": "% w/w"}, {"measurement": "Imp-D", "setting": "[2]; NG Tube N = 2", "result": 0.14, "unit": "% w/w"}, {"measurement": "Impurity RRT-0.36", "setting": "[2]; NG Tube N = 2", "result": 0.06, "unit": "% w/w"}, {"measurement": "Impurity RRT-0.54", "setting": "[2]; NG Tube N = 2", "result": 0.07, "unit": "% w/w"}, {"measurement": "Impurity RRT-0.96", "setting": "[2]; NG Tube N = 2", "result": 0.06, "unit": "% w/w"}, {"measurement": "Impurity RRT-0.99", "setting": "[2]; NG Tube N = 2", "result": 0.07, "unit": "% w/w"}, {"measurement": "Impurity RRT-1.11", "setting": "[2]; NG Tube N = 2", "result": 0.05, "unit": "% w/w"}, {"measurement": "Total degradation products and impurities", "setting": "[2]; NG Tube N = 2", "result": 0.45, "unit": "% w/w"}, {"measurement": "Imp-D", "setting": "[2]; NG Tube N = 3", "result": 0.13, "unit": "% w/w"}, {"measurement": "Impurity RRT-0.99", "setting": "[2]; NG Tube N = 3", "result": 0.05, "unit": "% w/w"}, {"measurement": "Total degradation products and impurities", "setting": "[2]; NG Tube N = 3", "result": 0.18, "unit": "% w/w"}, {"measurement": "impurity profile of compatibility samples versus control sample", "setting": "[2]; NG tube", "result": "matched"}, {"measurement": "unknown impurities", "setting": "[2]; stability or recovery portions of the studies", "result": "< 0.1", "unit": "%"}]}
